Test results as given in patent US8741854B2, “Compositions and methods for feeding poultry” (Bioenergy, Inc., priority 2009, dated 2014).

Test system: male chicks of a commercial breed, "Cobb 500"
Assay: D-ribose supplementation of broiler chicks raised on a challenged rapid growth regimen
Format: in vivo, chicken (broiler chicks)
Conditions: D-ribose in drinking water, about 200 mg/kg body weight/day

Compound: O=C[C@H](O)[C@H](O)[C@H](O)CO [D-ribose]
- observed cardiomyopathic incidences (days 0 to 43, challenged environment, approximately 5200 feet elevation, control 27.6%): 15.1%
- average weight and feed conversion versus control (birds weighed days 35 and 43, FIG. 1): slightly better in the control group, but the differences were not statistically significant
